From US10428081B2, “EGFR inhibitor, preparation method and use thereof” (Shanghai Hansoh Biomedical Co., Ltd., priority 2014, dated 2019) come the findings set out here.

The structures appear in SMILES notation.

Experiment [1] concerns the target wild-type EGFR enzyme (Homo sapiens, UniProt P00533). The experiment is described as follows: Enzymologic experiment of wild-type (WT) EGFR (TR-FRET). The experiment is classed as biochemical. Particulars: ATP 0.1 to 5 uM. On the procedure: 2. Enzymologic Experiment of Wild-Type (WT) EGFR
In this experiment, the inhibitory effect of compounds on wild-type EGFR enzyme was tested by a fluorescence resonance energy transfer (TR-FRET) method, and the half maximal inhibitory concentration IC50 of the compounds on enzymatic activity was determined.
1) 1 to 5 μL of wild-type EGFR enzyme solution was added to a 384-well plate, and the final concentration of the enzyme was 0.1 to 1 nM.
(§1) 2) 1 to 5 μL of diluted solution in gradient of the compound was added.
(§2) 3) The mixture was incubated for 10 minutes at room temperature.
(§3) 6) 5 μL of EDTA stop solution was added to terminate the reaction for 5 minutes.
7) 5 μL of a test solution containing the labeled antibody was added, and the mixture was incubated at room temperature for 1 hour.
9) The inhibition rates were calculated from the fluorescence signal values.
(§4) 10) The IC50 of the compound was obtained by curve fitting according to the inhibition rates at different concentrations.
For orientation: In TR-FRET formats the signal depends on donor and acceptor labels being close together.

For experiment [2], the target named is exon 20 T790M mutant-type EGFR enzyme (Homo sapiens, UniProt P00533, T790M). Kind of experiment: Enzymologic experiment of T790M mutant-type EGFR (TR-FRET). The experiment is classed as biochemical. Particulars: for IC50: T790M EGFR enzyme, TR-FRET, ATP 1 to 10 uM; for Selectivity of wild-type/mutant-type: ratio WT IC50 / T790M IC50, enzyme. On the procedure:
as §1, §2, §3
7) […] of a test solution containing the labeled antibody was added, and the mixture was incubated at room temperature for 1 hour.
9) The inhibition rates were calculated according to the fluorescence signal values.
as §4

Experiment [3] deals with NCI-H1975 cells. Kind of experiment: Inhibition of NCI-H1975 cell proliferation (CellTiter-Glo). The following applies: Homo sapiens, NCI-H1975, 72 h, NCI-H1975 cell proliferation, 72 hours, CellTiter-Glo; read-out: EGFR IC50 (nM) H1975. The experiment is classed as cell-based. On the procedure:
3. Experiment on the Inhibition of NCI-H1975 Cell Proliferation
In this experiment, the inhibitory effect of the compounds on NCI-H1975 cell proliferation was tested by a CellTiter-Glo method, and the half maximal inhibitory concentration (IC50) of the compounds on the activity of cell proliferation was determined.
The culture plate was incubated in an incubator for 16 to 24 hours (37° C., 5% CO2).
2) Different concentrations of the test compound in a gradient dilution were added to the cells in the culture plate. The culture plate was incubated in an incubator for 72 hours (37° C., 5% CO2).
3) 50 to 100 μL of CellTiter-Glo reagent was added to each well. Then, the culture plate was shaken for 10 minutes, and left to stand at room temperature for 10 minutes.
4) The chemiluminescence signal values of each plate were determined by a microplate reader.
5) The inhibition rates were calculated according to the chemiluminescence signal values.
6) The IC50 of the compound was obtained by curve fitting according to the inhibition rates at different concentrations.
(In general: ATP-based viability assays read luminescence as a measure of living cells.)

exon 20 T790M mutant-type EGFR enzyme, sequence (P00533 25-1210 T790M): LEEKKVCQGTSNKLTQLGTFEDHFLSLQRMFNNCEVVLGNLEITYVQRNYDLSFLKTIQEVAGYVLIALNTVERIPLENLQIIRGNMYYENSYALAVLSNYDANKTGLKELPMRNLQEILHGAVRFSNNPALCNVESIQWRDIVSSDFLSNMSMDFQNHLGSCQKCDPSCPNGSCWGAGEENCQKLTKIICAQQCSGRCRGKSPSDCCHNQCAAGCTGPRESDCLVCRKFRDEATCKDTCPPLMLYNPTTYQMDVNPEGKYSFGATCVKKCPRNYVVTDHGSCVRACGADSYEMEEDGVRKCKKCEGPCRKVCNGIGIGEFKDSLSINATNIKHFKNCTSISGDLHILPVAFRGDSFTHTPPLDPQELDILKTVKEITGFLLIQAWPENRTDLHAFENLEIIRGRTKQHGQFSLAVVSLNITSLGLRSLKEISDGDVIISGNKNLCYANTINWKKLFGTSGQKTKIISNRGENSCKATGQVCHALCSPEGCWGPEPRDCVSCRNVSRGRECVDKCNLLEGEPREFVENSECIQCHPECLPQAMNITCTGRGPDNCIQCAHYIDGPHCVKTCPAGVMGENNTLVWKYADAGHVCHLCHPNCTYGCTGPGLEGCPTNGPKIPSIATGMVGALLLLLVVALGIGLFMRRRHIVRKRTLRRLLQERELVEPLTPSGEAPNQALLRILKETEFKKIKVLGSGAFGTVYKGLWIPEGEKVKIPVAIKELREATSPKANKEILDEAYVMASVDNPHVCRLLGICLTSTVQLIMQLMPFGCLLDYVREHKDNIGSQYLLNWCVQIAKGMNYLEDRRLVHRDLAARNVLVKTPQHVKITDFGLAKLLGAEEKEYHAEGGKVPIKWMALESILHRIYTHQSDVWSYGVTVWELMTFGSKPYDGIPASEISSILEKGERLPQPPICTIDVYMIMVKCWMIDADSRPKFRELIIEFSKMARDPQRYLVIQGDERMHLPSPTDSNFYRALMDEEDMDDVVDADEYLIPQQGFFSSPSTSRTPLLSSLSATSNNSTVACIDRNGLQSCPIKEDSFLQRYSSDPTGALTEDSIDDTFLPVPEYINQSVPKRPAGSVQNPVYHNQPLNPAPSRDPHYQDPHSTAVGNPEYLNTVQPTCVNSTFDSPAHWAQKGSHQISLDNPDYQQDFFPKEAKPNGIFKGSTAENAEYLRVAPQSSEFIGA
wild-type EGFR enzyme, sequence (P00533 25-1210): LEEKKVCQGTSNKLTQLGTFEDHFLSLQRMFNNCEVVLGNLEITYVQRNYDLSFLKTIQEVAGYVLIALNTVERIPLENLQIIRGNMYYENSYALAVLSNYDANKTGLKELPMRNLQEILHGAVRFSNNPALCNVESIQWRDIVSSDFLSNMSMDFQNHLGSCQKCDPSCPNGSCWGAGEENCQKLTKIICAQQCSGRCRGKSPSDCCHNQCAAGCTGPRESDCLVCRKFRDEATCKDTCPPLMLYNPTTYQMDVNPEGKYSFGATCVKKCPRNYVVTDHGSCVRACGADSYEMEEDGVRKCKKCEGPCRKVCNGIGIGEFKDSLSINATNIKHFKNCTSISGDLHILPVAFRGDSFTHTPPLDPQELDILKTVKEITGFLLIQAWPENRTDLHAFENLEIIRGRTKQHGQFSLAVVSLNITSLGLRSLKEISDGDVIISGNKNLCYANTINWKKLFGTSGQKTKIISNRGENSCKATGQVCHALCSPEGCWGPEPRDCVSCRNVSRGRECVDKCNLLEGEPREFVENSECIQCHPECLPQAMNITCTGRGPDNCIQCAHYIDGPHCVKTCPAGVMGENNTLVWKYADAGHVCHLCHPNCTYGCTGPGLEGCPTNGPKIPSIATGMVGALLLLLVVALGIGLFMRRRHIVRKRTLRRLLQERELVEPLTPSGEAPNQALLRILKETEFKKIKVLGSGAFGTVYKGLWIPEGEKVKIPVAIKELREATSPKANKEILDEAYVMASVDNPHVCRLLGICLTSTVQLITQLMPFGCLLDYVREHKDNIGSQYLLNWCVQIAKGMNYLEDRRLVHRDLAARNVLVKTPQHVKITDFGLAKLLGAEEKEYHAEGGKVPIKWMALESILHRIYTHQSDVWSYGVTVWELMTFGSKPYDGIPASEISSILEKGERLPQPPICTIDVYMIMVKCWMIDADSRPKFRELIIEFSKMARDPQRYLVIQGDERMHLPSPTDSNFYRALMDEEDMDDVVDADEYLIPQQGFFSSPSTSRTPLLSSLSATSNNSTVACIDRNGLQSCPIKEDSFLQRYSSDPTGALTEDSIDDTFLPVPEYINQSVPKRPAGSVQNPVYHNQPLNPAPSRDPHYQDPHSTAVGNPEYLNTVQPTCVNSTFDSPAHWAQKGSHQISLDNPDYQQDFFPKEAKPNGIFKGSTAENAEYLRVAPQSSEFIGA

`C=CC(=O)Nc1cc(Nc2nccc(-c3cn(C)c4ccccc34)n2)c(OC(F)F)cc1N(C)CCN(C)C` [Example 1, N-(4-(difluoromethoxy)-2-((2-(dimethylamino)ethyl)(methyl)amino)-5-((4-(1-methyl-1H-indol-3-yl)pyrimidin-2-yl)amino)phenyl)acrylamide] came in with a half-inhibitory concentration (IC50) in experiment [1] of 2 nM. For the same molecule, in experiment [2], the concentration for half-maximal inhibition (IC50) was determined as 0.15 nM and the Selectivity of wild-type/mutant-type is reported as 13.
Consider `C=CC(=O)Nc1cc(Nc2nccc(-c3cn(C)c4ccccc34)n2)c(OC(F)F)cc1N(C)CCN1CCOCC1=O` [Example 3, N-(4-(difluoromethoxy)-2-(methyl(2-(3-carbonylmorpholino)ethyl)amino)-5-((4-(1-methyl-1H-indol-3-yl)pyrimidin-2-yl)amino)phenyl)acrylamide], for which the IC50 in experiment [2] was 144 nM.
Turning to `C=CC(=O)Nc1cc(Nc2nccc(-c3cn(C)c4cc(P(C)(C)=O)ccc34)n2)c(OC(F)F)cc1N(C)CCN(C)C` [Example 11, N-(4-(difluoromethoxy)-2-((2-(dimethylamino)ethyl)(methyl)amino)-5-((4-(6-(dimethylphosphoryl)-1-methyl-1H-indol-3-yl)pyrimidin-2-yl)amino)phenyl)acrylamide], the IC50 in experiment [1] was determined as 64.1 nM; in experiment [2], 2.74 nM; in experiment [3] it was 24.6 nM. Besides, in experiment [2], the Selectivity of wild-type/mutant-type is on record as 23.39.
On to `C=CC(=O)Nc1cc(Nc2nccc(-c3cn(C4CC4)c4ccccc34)n2)c(OC(F)F)cc1N(C)CCN(C)C` [Example 12, N-(5-((4-(1-cyclopropyl-1H-indol-3-yl)pyrimidin-2-yl)amino)-4-(difluoromethoxy)-2-((2-(dimethylamino)ethyl)(methyl)amino)phenyl)acrylamide], for which the midpoint of inhibition in experiment [1], the IC50, lay at 6.01 nM. Also, in experiment [2], 0.32 nM corresponded to half-maximal inhibition (IC50) and the Selectivity of wild-type/mutant-type was determined as 18.7.
Turning to `C=CC(=O)Nc1cc(Nc2nccc(-c3cn(C)c4ccc(C5CC5)cc34)n2)c(OC)cc1N(C)CCN(C)C` [Example 23, N-(5-((4-(5-cyclopropyl-1-methyl-1H-indol-3-yl)pyrimidin-2-yl)amino)-2-((2-(dimethylamino)ethyl)(methyl)amino)-4-methoxyphenyl)acrylamide], the IC50 in experiment [2] amounted to 2.75 nM; in experiment [3], 46.8 nM.
In experiment [2], `C=CC(=O)Nc1cc(Nc2nccc(-c3cn(C)c4ccccc34)n2)c(OC)cc1N1CC2(COC2)C1` [Example 27, N-(4-methoxy-5-((4-(1-methyl-1H-indol-3-yl)pyrimidin-2-yl)amino)-2-(2-oxa-6-azaspiro[3,3]heptan-6-yl)phenyl)acrylamide] displayed an IC50 of 50.2 nM.
Still for that read-out and setting: for `C=CC(=O)Nc1cc(Nc2nccc(-c3cn(C)c4cc(F)cc(F)c34)n2)c(OC)cc1N(C)CCN(C)C` [Example 29, N-(5-((4-(4,6-difluoro-1-methyl-1H-indol-3-yl)pyrimidin-2-yl)amino)-2-((2-(dimethylamino)ethyl)(methyl)amino)-4-methoxyphenyl)acrylamide] the value was 16.5 nM.
Take `C=CC(=O)Nc1cc(Nc2nccc(-n3ncc4cc(OC)ccc43)n2)c(OC)cc1N(C)CCN(C)C` [Example 43, N-(2-((2-(dimethylamino)ethyl)(methyl)amino)-4-methoxy-5-((4-(5-methoxy-1H-indazol-1-yl)pyrimidin-2-yl)amino)phenyl)acrylamide]: the half-maximal inhibitory concentration (IC50) in experiment [1] stood at 3.77 nM; in experiment [2], 0.38 nM. For the same molecule, the Selectivity of wild-type/mutant-type in experiment [2] is 9.8.
The molecule `C=CC(=O)Nc1cc(Nc2nccc(-n3ncc4cc(C5CC5)ccc43)n2)c(OC)cc1N(C)CCN(C)C` [Example 47, N-(5-((4-(5-cyclopropyl-1H-indazol-1-yl)pyrimidin-2-yl)amino)-2-((2-(dimethylamino)ethyl)(methyl)amino)-4-methoxyphenyl)acrylamide] yielded an IC50 in experiment [2] of 41.4 nM.
With `C=CC(=O)Nc1cc(Nc2ncc(C(F)(F)F)c(-n3ncc4cc(C#N)ccc43)n2)c(OC)cc1N(C)CCN(C)C` [Example 52, N-(5-((4-(5-cyano-1H-indazol-1-yl)-5-(trifluoromethyl)pyrimidin-2-yl)amino)-2-((2-(dimethylamino)ethyl)(methyl)amino)-4-methoxyphenyl)acrylamide], the IC50 amounted to 116 nM in experiment [1], 1.08 nM in experiment [2] and 4.52 nM in experiment [3]. In experiment [2], the Selectivity of wild-type/mutant-type was found to be 107.1.
In the case of `C=CC(=O)Nc1cc(Nc2nccc(-n3cnc4cc(OC)ccc43)n2)c(OC)cc1N(C)CCN(C)C` [Example 59, N-(2-((2-(dimethylamino)ethyl)(methyl)amino)-4-methoxy-5-((4-(5-methoxy-1H-benzo[d]imidazol-1-yl)pyrimidin-2-yl)amino)phenyl)acrylamide], the IC50 in experiment [1] is 4.44 nM; in experiment [2], 0.35 nM. For the same molecule, in experiment [2], the Selectivity of wild-type/mutant-type is on record as 12.7.
As for `C=CC(=O)Nc1cc(Nc2nccc(-n3cnc4ccc(C#N)cc43)n2)c(OC)cc1N(C)CCN(C)C` [Example 62, N-(5-((4-(6-cyano-1H-benzo[d]imidazol-1-yl)pyrimidin-2-yl)amino)-2-((2-(dimethylamino)ethyl)(methyl)amino)-4-methoxyphenyl)acrylamide], the IC50 in experiment [1] was determined as 26.4 nM; in experiment [2] it was 8.32 nM; in experiment [3], 26.3 nM. For the same molecule, in experiment [2], the Selectivity of wild-type/mutant-type is given as 3.18.
Take `C=CC(=O)Nc1cc(Nc2ncc(C(F)(F)F)c(-n3cnc4ccc(OC)cc43)n2)c(OC)cc1N(C)CCN(C)C` [Example 68, N-(2-((2-(dimethylamino)ethyl)(methyl)amino)-4-methoxy-5-((4-(6-methoxy-1H-benzo[d]imidazol-1-yl)-5-(trifluoromethyl)pyrimidin-2-yl)amino)phenyl)acrylamide]: in experiment [1], the IC50 was 191 nM. Moreover, in experiment [2], the 50% inhibitory concentration (IC50) was 0.99 nM and the Selectivity of wild-type/mutant-type is reported as 193.03.
`C=CC(=O)Nc1cc(Nc2nccc(-n3c(C)nc4cc(OC)ccc43)n2)c(OC)cc1N(C)CCN(C)C` [Example 71, N-(2-((2-(dimethylamino)ethyl)(methyl)amino)-4-methoxy-5-((4-(5-methoxy-2-methyl-1H-benzo[d]imidazol-1-yl)pyrimidin-2-yl)amino)phenyl)acrylamide] showed a half-inhibitory concentration (IC50) in experiment [2] of 28.1 nM.
In experiment [2], `C=CC(=O)Nc1cc(Nc2nccc(-n3c(C)nc4ccc(C#N)cc43)n2)c(OC)cc1N(C)CCN(C)C` [Example 74, N-(5-((4-(6-cyano-2-methyl-1H-benzo[d]imidazol-1-yl)pyrimidin-2-yl)amino)-2-((2-(dimethylamino)ethyl)(methyl)amino)-4-methoxyphenyl)acrylamide] gave an IC50 of 26 nM.
For `C=CC(=O)Nc1cc(Nc2ncc(Cl)c(-n3nc(OC)c4cc(Cl)ccc43)n2)c(OC)cc1N(C)CCN(C)C` [Example 108, N-(5-((5-chloro-4-(5-chloro-3-methoxy-1H-indazol-1-yl)pyrimidin-2-yl)amino)-2-((2-(dimethylamino)ethyl)(methyl)amino)-4-methoxyphenyl)acrylamide], in experiment [1], half-maximal inhibition (IC50) was put at 119 nM. Further, in experiment [2], the concentration for half-maximal inhibition (IC50) amounted to 1.33 nM and the Selectivity of wild-type/mutant-type is given as 89.47.
With `C=CC(=O)Nc1cc(Nc2ncc(C(F)(F)F)c(-n3nc(OC)c4cc(Cl)ccc43)n2)c(OC)cc1N(C)CCN(C)C` [Example 109, N-(5-((4-(5-chloro-3-methoxy-1H-indazol-1-yl)-5-(trifluoromethyl)pyrimidin-2-yl)amino)-2-((2-(dimethylamino)ethyl)(methyl)amino)-4-methoxyphenyl)acrylamide], the IC50 was determined as 387 nM in experiment [1] and 5.18 nM in experiment [2]. Moreover, the Selectivity of wild-type/mutant-type in experiment [2] was 74.79.
The like results for `C=CC(=O)Nc1cc(Nc2nccc(-n3nc(OC)c4cc(Cl)ccc43)n2)c(OC)cc1N(C)CCN(C)C` [Example 110, N-(5-((4-(5-chloro-3-methoxy-1H-indazol-1-yl)pyrimidin-2-yl)amino)-2-((2-(dimethylamino)ethyl)(methyl)amino)-4-methoxyphenyl)acrylamide] were, in that order, 9.65 nM, 1.06 nM and 9.10.
In the same order, the values of `C=CC(=O)Nc1cc(Nc2ncc(Cl)c(-n3nc(CCC)c4cc(C#N)ccc43)n2)c(OC)cc1N(C)CCN(C)C` [Example 116, N-(5-((5-chloro-4-(5-cyano-3-propyl-1H-indazol-1-yl)pyrimidin-2-yl)amino)-2-((2-(dimethylamino)ethyl)(methyl)amino)-4-methoxyphenyl)acrylamide] are 19.6 nM, 0.8 nM and 24.45.

The IC50 is the concentration needed to halve the response being measured.
